Assay results from ChEMBL document CHEMBL1126502, “Enhancement of binding of quaternary ammonium derivatives of chlorpromaxine to dopamine D-2 receptors by the addition of a H-bonding group” (Bioorg Med Chem Lett, 1993).

Target: D(2) dopamine receptor (Rattus norvegicus, UniProt P61169)
Test: Tested for Competitive binding inhibition of [3H]spiperone to Dopamine receptor D2 in rat striatal membrane.
Assay type: cell membranes

Chain of D(2) dopamine receptor (P61169 whole entry): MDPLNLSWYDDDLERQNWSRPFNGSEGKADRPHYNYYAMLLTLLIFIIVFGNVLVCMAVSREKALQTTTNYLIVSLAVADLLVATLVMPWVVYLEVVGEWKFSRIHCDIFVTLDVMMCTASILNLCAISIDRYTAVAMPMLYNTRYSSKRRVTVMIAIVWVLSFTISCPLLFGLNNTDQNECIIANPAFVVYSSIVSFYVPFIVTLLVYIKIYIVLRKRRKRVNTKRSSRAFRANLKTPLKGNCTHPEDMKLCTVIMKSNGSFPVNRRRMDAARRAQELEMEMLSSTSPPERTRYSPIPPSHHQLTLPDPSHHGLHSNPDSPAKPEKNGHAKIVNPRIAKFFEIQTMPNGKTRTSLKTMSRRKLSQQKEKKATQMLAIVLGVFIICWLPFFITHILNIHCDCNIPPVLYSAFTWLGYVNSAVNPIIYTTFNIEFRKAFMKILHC

Row | Structure (SMILES) | Ki [µM]
1 | C[N+](C)(N)CCCN1c2ccccc2Sc2ccc(Cl)cc21 | 0.82
2 | C[N+](C)(C)NCCN1c2ccccc2Sc2ccc(Cl)cc21 | 4.88
3 | C[N+](C)(C)CCCN1c2ccccc2Sc2ccc(Cl)cc21 | 8.57
